Results reported in patent US12404304B1, “Telomerase reverse transcriptase (TERT) expression enhancing compounds and methods for using the same” (Sierra Sciences, LLC, priority 2007, dated 2025).

test system: viable cells in culture; assay: Cell viability assay (CellTiter-Glo Luminescent Cell Viability Assay, ATP quantitation, percent of vehicle control)

Structure (SMILES)	Average Cell Viability after 24 Hours (% DMSO)
COc1cccc(C(=O)NC(/C=C/c2ccccc2)c2cc(Cl)c3cccnc3c2O)c1 (centres unmarked) [compound 1017]	75.48
Oc1c(I)cc(I)c2cccnc12 [compound 1018]	56.90
CCN(CC)Cc1ccc(O)c2ncccc12 [compound 1096]	67.13
CC(=O)NC(c1ccccc1Cl)c1ccc2cccnc2c1O (centres unmarked) [compound 1025]	93.50
CCN(CC)c1ccc(C(NC(=O)C(C)C)c2cc(Cl)c3cccnc3c2O)cc1 (centres unmarked) [compound 1011]	64.50
CC(C)C(=O)NC(c1ccc(C(C)C)cc1)c1cc(Cl)c2cccnc2c1O (centres unmarked) [compound 1062]	60.77
Cc1ccc(C(NC(=O)C(C)C)c2ccc3cccnc3c2O)cc1 (centres unmarked) [compound 1088]	55.87
CCCC(=O)NC(c1ccc(N(C)C)cc1)c1cc(Cl)c2cccnc2c1O (centres unmarked) [compound 1066]	72.46
Oc1c(CN2CCN(c3cccc(Cl)c3)CC2)cc(Br)c2cccnc12 [compound 1002]	57.70
COc1ccc(C(=O)NC(c2ccc(Cl)cc2)c2cc(Cl)c3cccnc3c2O)cc1 (centres unmarked) [compound 1014]	28.33
CCOCc1cc(CN2CCCCC2)c(O)c2ncccc12 [compound 1099]	64.22
O=[N+]([O-])c1cc(CN2CCN(c3ccccc3)CC2)c(O)c2ncccc12 [compound 1029]	32.00
O=C(NC(c1ccc2c(c1)OCO2)c1cc([N+](=O)[O-])c2cccnc2c1O)C1CCCCC1 (centres unmarked) [compound 1068]	61.20
CCCC(=O)NC(c1ccc(C(C)C)cc1)c1cc([N+](=O)[O-])c2cccnc2c1O (centres unmarked) [compound 1056]	65.75
CCCCC(=O)NC(c1ccc(Cl)cc1)c1cc([N+](=O)[O-])c2cccnc2c1O (centres unmarked) [compound 1054]	46.45
CC(=O)NC(c1ccccc1)c1cc([N+](=O)[O-])c2cccnc2c1O (centres unmarked) [compound 1050]	62.77
CCCC(=O)NC(c1cccs1)c1cc([N+](=O)[O-])c2cccnc2c1O (centres unmarked) [compound 1048]	70.37
Cc1ccc(S(=O)(=O)Nc2cc(Cl)c(O)c3ncccc23)cc1 [compound 1092]	66.43
CC(=O)NC(c1ccc(C)cc1)c1ccc2cccnc2c1O (centres unmarked) [compound 1024]	95.15
CCCOCc1cc(CN2CCN(C)CC2)c(O)c2ncccc12 [compound 1101]	76.69
CCN1CCN(Cc2ccc3cccnc3c2O)CC1 [compound 1089]	89.98
Cc1ccc2ccc(C(Nc3ccccn3)c3ccccc3Br)c(O)c2n1 (centres unmarked) [compound 1477]	76.49
CCC(=O)NC(c1ccccc1Cl)c1cc(Cl)c2cccnc2c1O (centres unmarked) [compound 1041]	72.82
CCC(=O)NC(c1ccccc1Cl)c1cc([N+](=O)[O-])c2cccnc2c1O (centres unmarked) [compound 1074]	75.55

Structure (SMILES)	Average Cell Viability after 24 Hours (% DMSO)
CC1CCN(Cc2cc(COC(C)C)c3cccnc3c2O)CC1 [compound 1103]	58.35
CC(C)C(=O)NC(c1ccco1)c1ccc2cccnc2c1O (centres unmarked) [compound 1087]	72.33
CCOc1cc(C(NC(C)=O)c2cc([N+](=O)[O-])c3cccnc3c2O)ccc1O (centres unmarked) [compound 1033]	84.43
CC(C)C(=O)NC(c1ccc(Cl)cc1Cl)c1ccc2cccnc2c1O (centres unmarked) [compound 1042]	55.51
COCc1cc(CN2CCCCC2)c(O)c2ncccc12 [compound 1098]	68.58
CC(=O)NC(c1ccc(Br)cc1)c1ccc2cccnc2c1O (centres unmarked) [compound 1022]	63.83
Cc1cc(NC(c2ccccn2)c2ccc3cccnc3c2O)no1 (centres unmarked) [compound 1104]	71.14
Cc1ccc2ccc(C(Nc3ccccn3)c3cccc([N+](=O)[O-])c3)c(O)c2n1 (centres unmarked) [compound 1078]	67.66
CCCCC(=O)NC(c1ccccc1Cl)c1cc([N+](=O)[O-])c2cccnc2c1O (centres unmarked) [compound 1031]	76.88
CCCCC(=O)NC(c1ccc2c(c1)OCO2)c1cc([N+](=O)[O-])c2cccnc2c1O (centres unmarked) [compound 1046]	78.00
Cc1ccnc(NC(c2cccc(Br)c2)c2ccc3ccc(C)nc3c2O)c1 (centres unmarked) [compound 1083]	74.39
CCCC(=O)NC(c1ccc(Cl)cc1)c1cc([N+](=O)[O-])c2cccnc2c1O (centres unmarked) [compound 1044]	85.35
CCCCC(=O)NC(c1cccs1)c1cc(Cl)c2cccnc2c1O (centres unmarked) [compound 1067]	49.62
COc1ccc(C(=O)NC(/C=C/c2ccccc2)c2cc(Cl)c3cccnc3c2O)cc1 (centres unmarked) [compound 1016]	42.84
O=C(COc1ccccc1)NC(/C=C/c1ccccc1)c1cc(Cl)c2cccnc2c1O (centres unmarked) [compound 1015]	74.68
CC(C)OCc1cc(CN2CCCCC2)c(O)c2ncccc12 [compound 1102]	68.56
O=C(NC(c1ccc(Cl)cc1)c1ccc2cccnc2c1O)C1CCCCC1 (centres unmarked) [compound 1045]	60.30
Oc1c(C(Nc2ccccn2)c2c(Cl)cccc2Cl)ccc2cccnc12 (centres unmarked) [compound 1009]	68.59
Oc1c(C(Nc2ccccn2)c2cccc(Cl)c2Cl)ccc2cccnc12 (centres unmarked) [compound 1006]	69.78
CC(C)C(=O)NC(c1ccc(C(C)C)cc1)c1cc([N+](=O)[O-])c2cccnc2c1O (centres unmarked) [compound 1071]	81.62
COc1ccc(C(NC(=O)C(C)C)c2cc([N+](=O)[O-])c3cccnc3c2O)cc1 (centres unmarked) [compound 1073]	80.10
O=C(CCc1ccccc1)NC(c1ccc2c(c1)OCO2)c1ccc2cccnc2c1O (centres unmarked) [compound 1065]	61.72
CCCCC(=O)NC(c1ccc(OC)cc1)c1cc(Cl)c2cccnc2c1O (centres unmarked) [compound 1061]	62.27
CN1CCN(Cc2cc(COCc3ccccc3)c3cccnc3c2O)CC1 [compound 1003]	73.53

Structure (SMILES)	Average Cell Viability after 24 Hours (% DMSO)
Cc1ccc(S(=O)(=O)Nc2ccc(O)c3ncccc23)cc1 [compound 1091]	94.30
Cc1ccc(C(NC(=O)C2CCCCC2)c2ccc3cccnc3c2O)cc1 (centres unmarked) [compound 1047]	69.78
CCCCC(=O)NC(c1ccccc1OC)c1cc([N+](=O)[O-])c2cccnc2c1O (centres unmarked) [compound 1027]	62.71
Cc1ccc2ccc(C(Nc3ccccn3)c3ccccc3Cl)c(O)c2n1 (centres unmarked) [compound 1480]	79.43
Oc1c(C(Nc2ccccn2)c2ccc(OC3CCCC3)cc2)ccc2cccnc12 (centres unmarked) [compound 1004]	54.71
COc1ccc(C(NC(=O)C2CCCCC2)c2cc([N+](=O)[O-])c3cccnc3c2O)cc1OC (centres unmarked) [compound 1072]	78.35
CCC(=O)NC(c1ccccc1OC)c1cc([N+](=O)[O-])c2cccnc2c1O (centres unmarked) [compound 1051]	65.27
O=S1(=O)CCC(N2COc3c(cc(Cl)c4cccnc34)C2)C1 (centres unmarked) [compound 1462]	62.26
CCCCC(=O)NC(c1ccc(OC)cc1)c1cc([N+](=O)[O-])c2cccnc2c1O (centres unmarked) [compound 1040]	61.11
CCCCC(=O)NC(c1cccs1)c1cc([N+](=O)[O-])c2cccnc2c1O (centres unmarked) [compound 1063]	85.12
COc1ccc(C(=O)NC(c2ccco2)c2cc(Cl)c3cccnc3c2O)cc1 (centres unmarked) [compound 1012]	60.73
CCCC(=O)NC(c1ccc(O)c(OCC)c1)c1cc([N+](=O)[O-])c2cccnc2c1O (centres unmarked) [compound 1036]	73.28
CCCCC(=O)NC(c1ccco1)c1cc([N+](=O)[O-])c2cccnc2c1O (centres unmarked) [compound 1055]	57.43
CCCCC(=O)NC(/C=C/c1ccccc1)c1cc([N+](=O)[O-])c2cccnc2c1O (centres unmarked) [compound 1069]	80.34
Oc1c(Br)cc(Br)c2cccnc12 [compound 1019]	35.74
CC(C)C(=O)NC(c1ccccc1)c1cc([N+](=O)[O-])c2cccnc2c1O (centres unmarked) [compound 1479]	68.20
COc1ccc(C(NC(C)=O)c2ccc3cccnc3c2O)cc1OC (centres unmarked) [compound 1023]	75.33
CC(=O)NC(c1ccc(C(C)C)cc1)c1cc(Cl)c2cccnc2c1O (centres unmarked) [compound 1057]	50.02
Oc1c(C(Nc2ccccn2)c2ccc(Cl)c(Cl)c2)ccc2cccnc12 (centres unmarked) [compound 1082]	56.92
CCC(=O)NC(c1ccc(C)cc1)c1cc([N+](=O)[O-])c2cccnc2c1O (centres unmarked) [compound 1049]	65.63
Oc1c(C(Nc2ccccc2Cl)c2ccccn2)ccc2cccnc12 (centres unmarked) [compound 1095]	56.93
COC(=O)c1ccc(C(Nc2cc(C)ccn2)c2ccc3ccc(C)nc3c2O)cc1 (centres unmarked) [compound 1008]	67.58
O=C(NC(c1ccccc1)c1ccc2cccnc2c1O)c1ccccc1 (centres unmarked) [compound 1086]	56.53
